Biological target: T1, IRAK4 (Homo sapiens, UniProt Q9NWZ3)
T1 sequence (Q9NWZ3 1-460): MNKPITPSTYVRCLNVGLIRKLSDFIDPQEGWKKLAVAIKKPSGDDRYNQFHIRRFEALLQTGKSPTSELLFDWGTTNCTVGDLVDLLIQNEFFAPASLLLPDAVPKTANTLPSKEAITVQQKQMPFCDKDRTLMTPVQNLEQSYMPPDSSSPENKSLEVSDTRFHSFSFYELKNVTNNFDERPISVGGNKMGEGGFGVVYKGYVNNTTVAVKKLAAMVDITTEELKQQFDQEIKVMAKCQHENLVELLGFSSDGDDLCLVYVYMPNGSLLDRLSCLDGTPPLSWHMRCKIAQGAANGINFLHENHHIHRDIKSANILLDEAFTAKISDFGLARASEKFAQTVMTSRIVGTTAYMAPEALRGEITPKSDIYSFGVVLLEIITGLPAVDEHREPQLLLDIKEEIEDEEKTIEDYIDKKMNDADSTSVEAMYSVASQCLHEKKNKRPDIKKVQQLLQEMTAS
Assay: IRAK-4 activity inhibition assay (Caliper)
Assay type: biochemical
Conditions: 37 μM ATP, 3.5 nM IRAK4

SMILES | IC50 [µM]
CC[C@H](O)C[C@H]1CCc2sc3ncnc(O[C@H]4CC[C@](CC)(N(C)C)CC4)c3c21 [Compound I-104, (2S)-1-[(3R)-12-[[4-(dimethylamino)-4-ethylcyclohexyl]oxy]-7-thia-9,11-diazatricyclo[6.4.0.0[2,6]]dodeca-1(8),2(6),9,11-tetraen-3-yl]butan-2-ol] | 5 to 20
CN(C)[C@H]1CC[C@H](Nc2ncnc3sc4c(c23)C(CN2CCCC2)CC4)CC1 (stereo partly shown) [Compound I-10, (1r,4r)-N1,N1-dimethyl-N4-(5-(pyrrolidin-1-ylmethyl)-6,7-dihydro-5H-cyclopenta[4,5]thieno[2,3-d]pyrimidin-4-yl)cyclohexane-1,4-diamine] | 20 to 50
CC[S@@+]([O-])C[C@H]1CCc2sc3ncnc(O[C@H]4CC[C@H](N(C)C)CC4)c3c21 (single isomer, unassigned) [Compound I-46] | < 5
CN(C)[C@H]1CC[C@H](Nc2ncnc3sc4c(c23)C(C(=O)NCc2cccnc2)CC4)CC1 (stereo partly shown) [Compound I-25, 12-[[4-(dimethylamino)cyclohexyl]amino]-N-(pyridin-3-ylmethyl)-7-thia-9,11-diazatricyclo[6.4.0.0̂[2,6]]dodeca-1(12),2(6),8,10-tetraene-3-carboxamide] | 20 to 50
CN(C)[C@H]1CC[C@H](Oc2ncnc3sc4c(c23)CN(S(=O)(=O)CCO)CC4)CC1 [Compound I-209, 2-(3-[[4-(dimethylamino)cyclohexyl]oxy]-8-thia-4,6, 12-triazatricyclo[7.4.0.0[2,7]]trideca-1(9),2,4,6-tetraene-12-sulfonyl)ethan-1-ol] | < 5
CN(C)[C@H]1CC[C@H](Nc2ncnc3sc4c(c23)C(CC(=O)N2CCCC2)CC4)CC1 (stereo partly shown) [Compound I-14, 2-(4-(((1r,4r)-4-(dimethylamino)cyclohexyl)amino)-6,7-dihydro-5H-cyclopenta[4,5]thieno[2,3-d]pyrimidin-5-yl)-1-(pyrrolidin-1-yl)ethanone] | > 50
NC(=O)CC[C@H]1CCCc2sc3ncnc(O[C@H]4CC[C@H](N)CC4)c3c21 [Compound I-153, 3-((R)-4-(((1r,4R)-4-aminocyclohexyl)oxy)-5,6,7,8-tetrahydrobenzo[4,5]thieno[2,3-d]pyrimidin-5-yl)propanamide] | < 5
CC[S@+]([O-])C[C@H]1CCc2sc3ncnc(O[C@H]4CC[C@H](N(C)C)CC4)c3c21 (single isomer, unassigned) [Compound I-45] | < 5
NC(=O)C[C@H]1CCc2sc3ncnc(O[C@H]4CC[C@H](N5CCNC(=O)C5)CC4)c3c21 [Compound I-158, 2-((R)-4-(((1r,4R)-4-(3-oxopiperazin-1-yl)cyclohexyl)oxy)-6,7-dihydro-5H-cyclopenta[4,5]thieno[2,3-d]pyrimidin-5-yl)acetamide] | 20 to 50
COCCN[C@H]1CC[C@H](Oc2ncnc3sc4c(c23)[C@@H](CC(N)=O)CC4)CC1 [Compound I-133, 2-[(3R)-12-([4-[(2-methoxyethyl)amino]cyclohexyl]oxy)-7-thia-9,11-diazatricyclo[6.4.0.0[2,6]]dodeca-1(12),2(6),8,10-tetraen-3-yl]acetamide] | < 5
NC(=O)[C@@H]1CCc2sc3ncnc(N[C@H]4CC[C@H](N5CCOCC5)CC4)c3c2C1 [Compound I-208, (12R)-3-[[4-(morpholin-4-yl)cyclohexyl]amino]-8-thia-4,6-diazatricyclo[7.4.0.0[2,7]]trideca-1(9),2(7),3,5-tetraene-12-carboxamide] | < 5
CC(=O)N1CCc2sc3ncnc(O[C@H]4CC[C@H](N5CCOCC5)CC4)c3c2C1 [Compound I-171, 1-(3-[[4-(morpholin-4-yl)cyclohexyl]oxy]-8-thia-4,6,12-triazatricyclo[7.4.0.0[2,7]]trideca-1(9),2(7),3,5-tetraen-12-yl)ethan-1-one] | 5 to 20
CC1(C)Cc2c(sc3ncnc(O[C@H]4CC[C@H](N5CCOCC5)CC4)c23)CO1 [Compound I-193, 12,12-dimethyl-3-[[4-(morpholin-4-yl)cyclohexyl]oxy]-11-oxa-8-thia-4,6-diazatricyclo[7.4.0.0[2,7]]trideca-1(9),2(7),3,5-tetraene] | < 5
CN(C)[C@H]1CC[C@H](Oc2ncnc3sc4c(c23)CN(C(=O)CCO)CC4)CC1 [Compound I-195, 1-(3-[[4-(dimethylamino)cyclohexyl]oxy]-8-thia-4,6, 12-triazatricyclo[7.4.0.0[2,7]]trideca-1(9),2,4,6-tetraen-12-yl)-3-hydroxypropan-1-one] | 5 to 20
CC(=O)N1CCc2sc3ncnc(O[C@H]4CC[C@H](N(C)C)CC4)c3c2C1 [Compound I-167] | < 5
CCOC(=O)C1CCc2sc3ncnc(N[C@H]4CC[C@H](N)CC4)c3c21 (stereo partly shown) [Compound I-2, ethyl 4-(((1r,4r)-4-aminocyclohexyl)amino)-6,7-dihydro-5H-cyclopenta[4,5]thieno[2,3-d]pyrimidine-5-carboxylate] | 20 to 50
CCC(O)C[C@@H]1CCc2sc3ncnc(O[C@H]4CC[C@H](N5CCOCC5)CC4)c3c2C1 (stereo partly drawn) [Compound I-183, 1-((R)-4-(((1r,4R)-4-morpholinocyclohexyl)oxy)-5,6,7,8-tetrahydrobenzo[4,5]thieno[2,3-d]pyrimidin-6-yl)butan-2-ol] | < 5
CC[C@H](O)C[C@H]1CCc2sc3ncnc(N[C@H]4CC[C@H](N(C)C)CC4)c3c21 [Compound I-54] | < 5
NC(=O)CC[C@@H]1CCCc2sc3ncnc(O[C@H]4CC[C@H](N)CC4)c3c21 [Compound I-154, 3-((S)-4-(((1r,4S)-4-aminocyclohexyl)oxy)-5,6,7,8-tetrahydrobenzo[4,5]thieno[2,3-d]pyrimidin-5-yl)propanamide] | 5 to 20
CN(C)[C@H]1CC[C@H](Oc2ncnc3sc4c(c23)CN(C(=O)CC2CC2)CC4)CC1 [Compound I-170, 2-cyclopropyl-1-(3-[[4-(dimethylamino)cyclohexyl]oxy]-8-thia-4,6,12-triazatricyclo[7.4.0.0̂[2,7]]trideca-1(9),2(7),3,5-tetraen-12-yl)ethan-1-one] | 5 to 20
NC(=O)CC[C@H]1CCc2sc3ncnc(O[C@H]4CC[C@H](N5CCOCC5)CC4)c3c21 [Compound I-84, 3-((S)-4-(((1r,4S)-4-morpholinocyclohexyl)oxy)-6,7-dihydro-5H-cyclopenta[4,5]thieno[2,3-d]pyrimidin-5-yl)propanamide] | < 5
CN(C)[C@H]1CC[C@H](Oc2ncnc3sc4c(c23)[C@@H](CC(O)c2ncco2)CC4)CC1 (stereo in doubt) [Compound I-62, (1S)-2-[(3R)-12-[[4-(dimethylamino)cyclohexyl]oxy]-7-thia-9,11-diazatricyclo[6.4.0.0[2,6]]dodeca-1(8),2(6),9,11-tetraen-3-yl]-1-(1,3-oxazol-2-yl)ethan-1-ol] | < 5
NC(=O)[C@H]1CCc2sc3ncnc(O[C@H]4CC[C@H](N5CCC(F)(F)CC5)CC4)c3c2C1 [Compound I-236, (12S)-3-[[4-(4,4-difluoropiperidin-1-yl)cyclohexyl]oxy]-8-thia-4,6-diazatricyclo[7.4.0.0[2,7]]trideca-1(9),2(7),3,5-tetraene-12-carboxamide] | < 5
CCOC(=O)C1CCc2sc3ncnc(O[C@H]4CC[C@H](N(C)C)CC4)c3c21 (stereo partly shown) [Compound I-4] | 20 to 50
C[C@@H](O)C[C@H]1CCc2sc3ncnc(N[C@H]4CC[C@H](N(C)C)CC4)c3c21 [Compound I-53] | < 5

From patent US20160193216A1 (Nimbus Iris, Inc., priority 2012, published 2016)
